Results from PubChem BioAssay AID2060889 (Molecular Pharmacology Branch, DTP, NCI, 2025).

Tested on: LG0567-F671-PDC complex spheroids viability
Assay: Anticancer human tumor LG0567-F671-PDC patient-derived lung adenocarcinoma cell line growth inhibition [RAS]
Conditions: for IC50: curve of first compound; for viability, T/C: stronger effect = lower value
Excerpt: RAS pathway inhibitors in Combinations in Complex Spheroids
A high-throughput screen of multi-cell type tumor spheroids was designed to identify active combinations of RAS pathway inhibitors and targeted small molecules. Complex spheroids include a stromal component modeled by human endothelial cells (HUVEC) and fibroblasts modeled by human mesenchymal stem cells (MSCs). The concentration ranges selected for each drug and investigational agent were based upon clinically achievable concentrations if the clinical Cmax of the agent was known.
Compounds. The drugs and investigational agents: abemaciclib (NSC768073), cobimetinib (NSC768068), divarasib (GDC6063, NSC841802), docetaxel (NSC628503), GDC-1971 (RLY-1971, NSC841576), gemcitabine (NSC613327), inavolisib (NSC800729), ipatasertib (NSC767898), KB-0742 (NSC834161), MRTX-1133 (NSC836407), osimertinib (NSC779217), RMC-4630 (NSC839698), RMC-6236 (NSC851965), RMC-6291 (NSC852671), Ro-3306 (NSC812927), sapanisertib (NSC764658), SN-38 (NSC673596), staurosporine (NSC755774), SY5609 (NSC837396), and tovorafenib (DAY101, NSC766906), were obtained from the National Cancer Institute (NCI) Developmental Therapeutics Program Chemical Repository. The FDA-approved anticancer drug set is available from the NCI Developmental Therapeutics Program. […] The stock solutions were prepared in dimethyl sulfoxide (DMSO, Sigma-Aldrich, St. Louis, MO, cat. D2650) at 800-fold the tested concentration and stored at -70 degrees C prior to their use. All drugs and investigational agents were tested over a range starting from a high concentration at or near the clinical Cmax and decreasing in half-log increments. If the clinical Cmax for an agent had not been determined, the highest concentration tested was 10 microM.
Cell Culture. All cells were maintained in an incubator at 37 degrees C and 5% CO2 with 95% humidity. The PDC lines were cultured according to standard operating procedures established by the NCI PDMR. All PDCs were thawed and cultured in Matrigel-coated flasks prepared with a working solution of 1X Ham's F-12 nutrient mix, without supplementation (Invitrogen, Waltham, MA, cat. 11765054), 100 U/mL penicillin-streptomycin (Invitrogen, cat. 15140122), and 2.5% Matrigel (Corning Inc., Corning, NY, cat. 354248) for the first three passages. The 362531-283-R-J2-PDC and 782815-120-R-J1-PDC lines were cultured in 6C/Colon 1B media, which includes advanced DMEM/F-12 (Thermo Fisher Scientific, cat. 12634028), 10 mM HEPES (Thermo Fisher Scientific, cat. 15630080), 1X GlutaMAX supplement (Thermo Fisher Scientific, cat. 35050061), 0.1 mg/mL primocin (InvivoGen, San Diego, CA, cat. ant-pm-2), 10% defined fetal bovine serum, heat inactivated (HyClone Laboratories Inc., Logan, UT, cat. SH30070.03HI), 50% L-WRN conditioned media (ATCC, cat. CRL-3276), 1.25 mM N-Acetyl-L-cysteine (Sigma-Aldrich, cat. A9165), 10 mM nicotinamide (Sigma-Aldrich, cat. N0636), 1X B-27 supplement (Thermo Fisher Scientific, cat. 17504044), 1X N-2 supplement (Thermo Fisher Scientific, cat. 17502048), 50 ng/mL human EGF (Thermo Fisher Scientific, cat. PHG0311), and 10 microM Y-27632 dihydrochloride (Tocris Bioscience, cat. 1254). The K12877-001-R-J1-PDC line was cultured in 6I media, which includes all 6C/Colon 1B media plus 10 ng/mL human FGF-10 (PeproTech, cat. 100-26), 1 ng/mL human FGF-2 (PeproTech, cat. 100-18B), 1 µM prostaglandin E2 (Tocris Bioscience, cat. 2296), […] hydrocortisone (Sigma-Aldrich, cat. H4001), and […] bovine insulin (Sigma-Aldrich, cat. I6634). The K86415-001-R-J1-PDC line was cultured in 6D media, which includes all 6C/Colon 1B media components minus the L-WRN conditioned media. The 485176-168-R4-J1-PDC was cultured in PANC media, which includes all 6C/Colon 1B media plus 100 ng/mL human FGF-10 (PeproTech, cat. 100-26), 500 nM SB-431542 (Selleckchem, cat. S1067), and 10 nM gastrin (Tocris Bioscience, cat. 3006). […]
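Note: spheroids exposed to compound for seven days before readout.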
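Throughout, for IC50: luminescence signal used as a proxy for viable cells.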

CC(C)NCC(C(=O)N1CCN(c2ncnc3c2C(C)CC3O)CC1)c1ccc(Cl)cc1 (configuration not stated) + C#Cc1c(F)ccc2cc(O)cc(-c3ncc4c(N5CC6CCC(C5)N6)nc(OCC56CCCN5CC(F)C6)nc4c3F)c12
IC50 (second compound 0.0316 µM): > 10000 nM | IC50 (second compound 0.1 µM): > 10000 nM | IC50 (second compound 0.316 µM): 62.2 nM | IC50 (second compound 1 µM): < 31.6 nM | IC50 (second compound 3.16 µM): < 31.6 nM | IC50 (second compound 10 µM): < 31.6 nM | viability, T/C (second compound 0.0316 µM, first compound 0.0316 µM): 93.5% | viability, T/C (second compound 0.0316 µM, first compound 0.1 µM): 88.3% | viability, T/C (second compound 0.0316 µM, first compound 0.316 µM): 72% | viability, T/C (second compound 0.0316 µM, first compound 1 µM): 60.1% | viability, T/C (second compound 0.0316 µM, first compound 3.16 µM): 63.5% | viability, T/C (second compound 0.0316 µM, first compound 10 µM): 55% | viability, T/C (second compound 0.1 µM, first compound 0.0316 µM): 84.2% | viability, T/C (second compound 0.1 µM, first compound 0.1 µM): 66% | viability, T/C (second compound 0.1 µM, first compound 0.316 µM): 70.6% | viability, T/C (second compound 0.1 µM, first compound 1 µM): 51.3% | viability, T/C (second compound 0.1 µM, first compound 3.16 µM): 59.3% | viability, T/C (second compound 0.1 µM, first compound 10 µM): 56.4% | viability, T/C (second compound 0.316 µM, first compound 0.0316 µM): 50.3% | viability, T/C (second compound 0.316 µM, first compound 0.1 µM): 50.1% | viability, T/C (second compound 0.316 µM, first compound 0.316 µM): 54.7% | viability, T/C (second compound 0.316 µM, first compound 1 µM): 35.9% | viability, T/C (second compound 0.316 µM, first compound 3.16 µM): 47% | viability, T/C (second compound 0.316 µM, first compound 10 µM): 51.6% | viability, T/C (second compound 1 µM, first compound 0.0316 µM): 35.4% | viability, T/C (second compound 1 µM, first compound 0.1 µM): 29.8% | viability, T/C (second compound 1 µM, first compound 0.316 µM): 30% | viability, T/C (second compound 1 µM, first compound 1 µM): 28.1% | viability, T/C (second compound 1 µM, first compound 3.16 µM): 28.2% | viability, T/C (second compound 1 µM, first compound 10 µM): 31.2% | viability, T/C (second compound 3.16 µM, first compound 0.0316 µM): 19.4% | viability, T/C (second compound 3.16 µM, first compound 0.1 µM): 17.9% | viability, T/C (second compound 3.16 µM, first compound 0.316 µM): 19.2% | viability, T/C (second compound 3.16 µM, first compound 1 µM): 13.9% | viability, T/C (second compound 3.16 µM, first compound 3.16 µM): 14.9% | viability, T/C (second compound 3.16 µM, first compound 10 µM): 13.4% | viability, T/C (second compound 10 µM, first compound 0.0316 µM): 12.4% | viability, T/C (second compound 10 µM, first compound 0.1 µM): 12.7% | viability, T/C (second compound 10 µM, first compound 0.316 µM): 11.1% | viability, T/C (second compound 10 µM, first compound 1 µM): 9.42% | viability, T/C (second compound 10 µM, first compound 3.16 µM): 8.58% | viability, T/C (second compound 10 µM, first compound 10 µM): 5.74%
